Paper PMC8766756, “Insights on Cancer Cell Inhibition, Subcellular Activities, and Kinase Profile of Phenylacetamides Pending 1H-Imidazol-5-One Variants” (Frontiers in Pharmacology, 2022)
Values joined by “and” are separate entries in the source; they are usually repeats but may differ in a detail not shown here. Identical values can stand only once.

How the values were obtained:
Test in all cases: PamChip tyrosine kinase microarray
Type in all cases: biochemical
Conditions in all cases: 0.1 µM, HL60 lysate
CSK (P41240) = target: T1, CSK (P41240) (Homo sapiens, UniProt P41240)
T1 construct: purchased PamGene (PamChip PTK array, Upstream Kinase Analysis)
Outline: (§1)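 HL60 (AML) cell lysate was spiked with compound at 0.001, 0.01, 0.1, 1, 10 and 50 µM, or 2% v/v DMSO as control, then profiled in technical replicates on a tyrosine kinase peptide array of 196 phosphosites. Kinase activity was inferred from peptide-set changes using an upstream kinase tool.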

FGFR2 (P21802) = target: T2, FGFR2 (P21802) (Homo sapiens, UniProt P21802)
T2 construct: purchased PamGene (PamChip PTK array, Upstream Kinase Analysis)
Outline: as §1

Lyn (P07948) = target: T3, Lyn (P07948) (Homo sapiens, UniProt P07948)
T3 construct: purchased PamGene (PamChip PTK array, Upstream Kinase Analysis)
Outline: as §1

TXK (P42681) = target: T4, TXK (P42681) (Homo sapiens, UniProt P42681)
T4 construct: purchased PamGene (PamChip PTK array, Upstream Kinase Analysis)
T4 sequence (P42681 1-527): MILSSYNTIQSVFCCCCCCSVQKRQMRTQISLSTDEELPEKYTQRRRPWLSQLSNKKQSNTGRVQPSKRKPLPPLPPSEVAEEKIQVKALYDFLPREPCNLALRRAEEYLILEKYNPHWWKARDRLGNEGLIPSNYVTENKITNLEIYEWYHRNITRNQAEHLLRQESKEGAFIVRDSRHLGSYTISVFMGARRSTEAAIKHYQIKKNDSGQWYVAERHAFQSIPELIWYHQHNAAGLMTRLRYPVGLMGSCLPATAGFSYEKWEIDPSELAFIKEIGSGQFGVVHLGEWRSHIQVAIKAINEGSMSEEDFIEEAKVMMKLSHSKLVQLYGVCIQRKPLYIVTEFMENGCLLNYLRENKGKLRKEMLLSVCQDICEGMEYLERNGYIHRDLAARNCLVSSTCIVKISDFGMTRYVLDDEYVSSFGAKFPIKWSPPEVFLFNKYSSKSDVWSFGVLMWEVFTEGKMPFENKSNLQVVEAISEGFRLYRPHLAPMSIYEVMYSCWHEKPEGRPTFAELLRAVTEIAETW
Outline: as §1

Tyk2 (P29597) = target: T5, Tyk2 (P29597) (Homo sapiens, UniProt P29597)
T5 construct: purchased PamGene (PamChip PTK array, Upstream Kinase Analysis)
Outline: as §1

Tyro3/Sky (Q06418) = target: T6, Tyro3/Sky (Q06418) (Homo sapiens, UniProt Q06418)
T6 construct: purchased PamGene (PamChip PTK array, Upstream Kinase Analysis)
T6 sequence (Q06418 41-890): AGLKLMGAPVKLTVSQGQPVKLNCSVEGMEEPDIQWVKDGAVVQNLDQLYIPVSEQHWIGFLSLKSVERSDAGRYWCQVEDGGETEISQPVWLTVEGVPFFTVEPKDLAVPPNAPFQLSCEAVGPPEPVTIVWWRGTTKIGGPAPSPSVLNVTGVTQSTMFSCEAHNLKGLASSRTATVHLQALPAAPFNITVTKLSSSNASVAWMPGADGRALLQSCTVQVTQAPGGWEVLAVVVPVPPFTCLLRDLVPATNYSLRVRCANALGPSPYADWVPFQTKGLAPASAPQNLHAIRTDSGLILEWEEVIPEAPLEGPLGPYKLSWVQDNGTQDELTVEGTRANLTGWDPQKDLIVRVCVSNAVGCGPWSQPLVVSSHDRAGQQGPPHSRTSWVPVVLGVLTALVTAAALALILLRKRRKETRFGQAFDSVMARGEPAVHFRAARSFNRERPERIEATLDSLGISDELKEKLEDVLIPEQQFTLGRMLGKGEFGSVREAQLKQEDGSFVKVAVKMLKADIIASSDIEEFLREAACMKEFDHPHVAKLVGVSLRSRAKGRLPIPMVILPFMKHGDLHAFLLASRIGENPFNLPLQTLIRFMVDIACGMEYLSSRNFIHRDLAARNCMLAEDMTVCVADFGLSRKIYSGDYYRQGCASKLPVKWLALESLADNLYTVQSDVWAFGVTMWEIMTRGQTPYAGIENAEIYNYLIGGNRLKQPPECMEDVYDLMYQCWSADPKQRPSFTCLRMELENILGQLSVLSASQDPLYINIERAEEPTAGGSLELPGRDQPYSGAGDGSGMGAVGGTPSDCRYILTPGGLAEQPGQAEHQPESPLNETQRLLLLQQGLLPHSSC
Outline: as §1

T3 sequence (P07948 whole entry): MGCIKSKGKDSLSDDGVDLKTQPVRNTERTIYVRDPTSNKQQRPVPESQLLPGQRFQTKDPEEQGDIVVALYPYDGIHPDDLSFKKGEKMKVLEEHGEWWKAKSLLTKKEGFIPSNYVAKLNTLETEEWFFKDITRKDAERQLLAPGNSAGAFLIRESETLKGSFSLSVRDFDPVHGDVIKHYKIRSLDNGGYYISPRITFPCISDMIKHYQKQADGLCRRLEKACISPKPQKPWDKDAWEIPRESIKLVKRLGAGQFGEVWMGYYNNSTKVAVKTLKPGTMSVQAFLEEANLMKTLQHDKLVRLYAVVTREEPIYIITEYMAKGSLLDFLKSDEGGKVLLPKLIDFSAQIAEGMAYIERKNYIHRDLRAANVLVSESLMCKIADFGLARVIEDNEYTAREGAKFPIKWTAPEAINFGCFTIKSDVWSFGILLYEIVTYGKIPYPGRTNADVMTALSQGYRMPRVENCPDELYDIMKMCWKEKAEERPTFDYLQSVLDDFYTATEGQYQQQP
T2 sequence (P21802 22-821): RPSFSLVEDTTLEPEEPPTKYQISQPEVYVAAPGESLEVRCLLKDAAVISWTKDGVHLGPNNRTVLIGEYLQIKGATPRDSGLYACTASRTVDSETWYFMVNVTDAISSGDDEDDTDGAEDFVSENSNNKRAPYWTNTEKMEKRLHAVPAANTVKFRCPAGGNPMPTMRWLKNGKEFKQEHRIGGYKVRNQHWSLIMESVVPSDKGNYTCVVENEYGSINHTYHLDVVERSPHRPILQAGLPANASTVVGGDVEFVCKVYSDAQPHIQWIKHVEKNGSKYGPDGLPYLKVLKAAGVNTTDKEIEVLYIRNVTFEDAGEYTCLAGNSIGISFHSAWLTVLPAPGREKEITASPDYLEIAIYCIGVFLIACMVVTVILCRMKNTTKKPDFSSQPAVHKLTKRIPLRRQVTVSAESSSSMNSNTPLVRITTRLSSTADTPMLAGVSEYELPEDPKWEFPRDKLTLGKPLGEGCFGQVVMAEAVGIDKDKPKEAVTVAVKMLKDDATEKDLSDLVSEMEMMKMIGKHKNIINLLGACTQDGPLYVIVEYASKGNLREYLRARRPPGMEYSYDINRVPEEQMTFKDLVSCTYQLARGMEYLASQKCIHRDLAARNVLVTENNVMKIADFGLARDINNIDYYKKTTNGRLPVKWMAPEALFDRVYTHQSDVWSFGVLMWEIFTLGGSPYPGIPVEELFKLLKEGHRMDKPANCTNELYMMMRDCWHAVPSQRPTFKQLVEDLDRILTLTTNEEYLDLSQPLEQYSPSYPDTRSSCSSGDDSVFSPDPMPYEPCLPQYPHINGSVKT
T1 sequence (P41240 whole entry): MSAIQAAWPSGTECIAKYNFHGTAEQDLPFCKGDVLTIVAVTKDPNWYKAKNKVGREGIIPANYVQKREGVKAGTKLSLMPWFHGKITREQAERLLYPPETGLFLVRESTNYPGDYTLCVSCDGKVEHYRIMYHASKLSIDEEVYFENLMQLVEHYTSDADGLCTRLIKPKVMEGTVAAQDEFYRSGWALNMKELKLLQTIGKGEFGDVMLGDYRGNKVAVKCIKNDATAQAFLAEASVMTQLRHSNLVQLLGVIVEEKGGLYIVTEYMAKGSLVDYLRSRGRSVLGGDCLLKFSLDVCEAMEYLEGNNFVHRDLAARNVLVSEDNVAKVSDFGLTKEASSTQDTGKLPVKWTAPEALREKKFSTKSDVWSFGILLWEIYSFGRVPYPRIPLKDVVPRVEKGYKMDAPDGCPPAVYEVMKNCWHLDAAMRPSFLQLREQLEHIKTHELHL
T5 sequence (P29597 whole entry): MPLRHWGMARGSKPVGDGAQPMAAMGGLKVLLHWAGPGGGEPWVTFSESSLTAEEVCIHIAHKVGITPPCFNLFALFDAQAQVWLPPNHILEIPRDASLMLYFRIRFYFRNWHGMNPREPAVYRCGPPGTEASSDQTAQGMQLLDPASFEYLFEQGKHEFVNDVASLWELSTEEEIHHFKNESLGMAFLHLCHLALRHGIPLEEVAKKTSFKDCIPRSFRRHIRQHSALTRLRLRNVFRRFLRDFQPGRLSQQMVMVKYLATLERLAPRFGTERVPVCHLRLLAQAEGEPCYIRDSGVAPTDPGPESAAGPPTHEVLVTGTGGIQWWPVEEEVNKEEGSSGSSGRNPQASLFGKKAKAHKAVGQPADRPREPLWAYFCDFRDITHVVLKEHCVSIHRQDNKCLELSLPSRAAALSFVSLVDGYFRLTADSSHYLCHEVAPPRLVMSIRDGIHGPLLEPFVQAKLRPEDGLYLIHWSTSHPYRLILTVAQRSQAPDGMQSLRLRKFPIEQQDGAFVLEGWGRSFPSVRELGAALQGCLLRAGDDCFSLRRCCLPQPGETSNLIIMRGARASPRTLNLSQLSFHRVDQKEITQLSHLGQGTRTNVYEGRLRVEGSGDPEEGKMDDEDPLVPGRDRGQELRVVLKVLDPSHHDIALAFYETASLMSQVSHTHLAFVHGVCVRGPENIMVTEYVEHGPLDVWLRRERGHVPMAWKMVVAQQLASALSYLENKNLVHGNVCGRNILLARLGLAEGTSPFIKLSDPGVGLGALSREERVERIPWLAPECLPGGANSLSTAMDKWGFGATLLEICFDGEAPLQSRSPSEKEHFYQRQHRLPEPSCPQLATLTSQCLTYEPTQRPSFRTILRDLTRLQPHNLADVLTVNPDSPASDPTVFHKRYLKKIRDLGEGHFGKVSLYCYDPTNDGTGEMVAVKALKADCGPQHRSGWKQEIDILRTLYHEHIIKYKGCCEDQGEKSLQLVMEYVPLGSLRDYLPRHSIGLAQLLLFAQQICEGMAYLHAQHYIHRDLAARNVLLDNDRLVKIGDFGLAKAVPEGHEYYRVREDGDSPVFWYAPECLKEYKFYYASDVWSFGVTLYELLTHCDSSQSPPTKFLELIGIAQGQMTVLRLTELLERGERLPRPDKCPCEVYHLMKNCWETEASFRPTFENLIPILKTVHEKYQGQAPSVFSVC

COc1ccc(/C=C2\N=C(C)N(c3ccc(CC(=O)NCc4ccccc4)cc3)C2=O)cc1 [Compound 4c, (Z)-N-Benzyl-2-(4-(4-(4-methoxybenzylidene)-2-methyl-5-oxo-4,5-dihydro-1H-imidazol-1-yl)phenyl)acetamide]
Mean Significance Score (CSK (P41240)): 2.048
Mean Specificity Score (CSK (P41240)): 1.0649
Mean Final score (Kinase score) (CSK (P41240); listed as KIM-161): 3.09
Mean Final score (Kinase score) (FGFR2 (P21802)): 2.386
Mean Kinase Statistic (FGFR2 (P21802)): -1.189
Mean Significance Score (FGFR2 (P21802)): 2.048
Mean Specificity Score (FGFR2 (P21802)): 0.3335
Mean Final score (Kinase score) (Lyn (P07948)): 2.229
Mean Kinase Statistic (Lyn (P07948)): -1.195
Mean Significance Score (Lyn (P07948)): 1.851
Mean Specificity Score (Lyn (P07948)): 0.3437
Mean Significance Score (TXK (P42681)): 2.048
Mean Specificity Score (TXK (P42681)): 0.6377
Mean Final score (Kinase score) (TXK (P42681); listed as KIM-161): 2.68
Mean Final score (Kinase score) (Tyk2 (P29597)): 2.4437
Mean Kinase Statistic (Tyk2 (P29597)): -1.248
Mean Significance Score (Tyk2 (P29597)): 2.048
Mean Specificity Score (Tyk2 (P29597)): 0.3814
Mean Significance Score (Tyro3/Sky (Q06418)): 2.048
Mean Specificity Score (Tyro3/Sky (Q06418)): 1.177
Mean Final score (Kinase score) (Tyro3/Sky (Q06418); listed as KIM-161): 3.29 and 3.287
